Test results from patent US20070117842A1, “Polymorph of 4-[3-chloro-4-(cyclopropylaminocarbonyl)aminophenoxy]-7-methoxy-6- quinolinecarboxamide and a process for the preparation of the same” (priority 2003, published 2007).

What was measured:
[1] = molecular target: T1, c-Kit kinase (Homo sapiens, UniProt P10721); assay: Effect on c-Kit kinase phosphorylation in H-526 tumor transplanted to nude mice (immunoblot); assay type: in vivo, Balb/c nu/nu mice; parameters: from tissue; host or cells: H-526 tumour xenograft extracted from Balb/c nu/nu mice; settings: H-526 tumor in nude mice
T1 sequence (P10721 26-976): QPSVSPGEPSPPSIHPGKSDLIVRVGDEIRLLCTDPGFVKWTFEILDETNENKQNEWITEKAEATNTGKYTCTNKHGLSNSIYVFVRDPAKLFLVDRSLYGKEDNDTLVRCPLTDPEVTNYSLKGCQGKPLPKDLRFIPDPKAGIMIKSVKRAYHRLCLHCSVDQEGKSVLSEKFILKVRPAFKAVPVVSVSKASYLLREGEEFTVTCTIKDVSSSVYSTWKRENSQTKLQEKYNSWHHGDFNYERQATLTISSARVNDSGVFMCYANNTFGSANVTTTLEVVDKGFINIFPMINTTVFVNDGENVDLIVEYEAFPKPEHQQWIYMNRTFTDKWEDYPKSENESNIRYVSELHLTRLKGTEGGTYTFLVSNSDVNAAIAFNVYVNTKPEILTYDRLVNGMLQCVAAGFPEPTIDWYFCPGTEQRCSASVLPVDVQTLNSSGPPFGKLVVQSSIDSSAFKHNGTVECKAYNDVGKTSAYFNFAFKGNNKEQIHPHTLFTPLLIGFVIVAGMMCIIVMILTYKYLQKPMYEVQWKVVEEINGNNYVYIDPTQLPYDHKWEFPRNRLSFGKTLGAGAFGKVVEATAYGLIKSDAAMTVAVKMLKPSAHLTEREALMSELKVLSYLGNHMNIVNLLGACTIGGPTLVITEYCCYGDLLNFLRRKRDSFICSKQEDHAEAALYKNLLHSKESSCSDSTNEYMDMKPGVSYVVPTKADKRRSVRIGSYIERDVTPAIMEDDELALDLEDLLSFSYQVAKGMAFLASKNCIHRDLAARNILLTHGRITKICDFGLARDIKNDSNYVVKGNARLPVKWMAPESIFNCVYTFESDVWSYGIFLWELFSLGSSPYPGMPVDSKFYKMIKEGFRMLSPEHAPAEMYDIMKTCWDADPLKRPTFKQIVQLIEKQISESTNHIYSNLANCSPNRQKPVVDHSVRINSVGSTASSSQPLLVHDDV
Protocol: 0.1 ml of a H-526 cell suspension prepared at a concentration of 5.0×10^7 cells/ml, was transplanted to the subcutaneous parts of the right latus of 6-week female Balb/c nu/nu mice (purchased from Charles River Laboratories, Inc.). The animals were then divided into a vehicle control group (solvent-administered group) and a test substance (4-(3-chloro-4-(cyclopropylaminocarbonyl)aminophenoxy)-7-methoxy-6-quinolinecarboxamide) administered group at the point the tumor volume reached 300-1000 mm^3: the test substance was administered to the latter group. The extracted tumor was placed in a cell lysate buffer (50 mM HEPES (pH 7.4), 150 mM NaCl, 10% glycerol, 1% Triton X-100, 1.5 mm MgCl2, 1 mM EDTA, 100 mM NaF, 1 mM PMSF, 10 μg/ml aprotinin, 50 μg/ml leupeptin, 1 μg/ml peptatin A, 1 mM Na3VO4, 25 mM , βglycerophosphate, and phosphatase inhibitor cocktail 11) and homogenized. After centrifugation, the supernatant was protein quantified, and a 3×SDS sample loading buffer was added to prepare a cell lysate sample. Subsequently, the cell lysate was heat-treated at 94° c. for 10 minutes and cryopreserved at −20° c.
The cell lysate sample which was equivalent to 30 μg of protein was electrophoresed on a 4-20% gradient polyacrylamide gel (Daiichi Pure Chemicals Co., Ltd.). After electrophoresis, the sample was transferred to a PVDF membrane (Amersham Pharmacia Biotech Inc.) for 3 hours. In order to assay phosphorylated c-Kit, c-Kit and β-actin, immunoblot was performed using a phospho-c-kit (Tyr719) antibody (Cell Signaling Technologies, Inc.), an anti c-Kit antibody (Cell Signaling Technologies, Inc.) and an anti β-actin antibody (Sigma) as a primary antibody and an anti-rabbit IgG, HRP-linked antibody (Cell Signaling Technologies, Inc.) as a secondary antibody. After the membrane was washed, it was developed with a Super Signal (Pierce Biotechnology, Inc.).

[2] = molecular target: T1, c-Kit kinase; assay: Effect on c-Kit kinase phosphorylation by SCF stimulation (immunoblot); assay type: cell-based; parameters: in the small cell lung cancer cell line H-526 expressing c-Kit kinase; host or cells: H-526 small cell lung cancer cells; settings: H-526 cells, 1 hour with test substance, SCF 5 minutes, phospho-c-kit (Tyr719) immunoblot
Protocol: 4-(3-Chloro-4-(cyclopropylaminocarbonyl)aminophenoxy)-7-methoxy-6-quinolinecarboxamide was tested for its effect on the phosphorylation of the c-Kit kinase molecule by SCF stimulation in the small cell lung cancer cell line H-526 expressing c-Kit kinase.
H-526 cells were cultured in a 5% CO2 incubator (37° c.) using an RPMI1640 medium containing 10% FCS. After culturing, H-526 cells were washed with PBS three times and were suspended in a BSA-RPMI1640 medium at 5.0×10^5 cells/ml. Each 1 ml of this cell suspension was inoculated to the well of a 24-well plate and the suspension was cultured in a 5% CO2 incubator (37° c.) for 6 hours. After 6-hours culturing, 1 ml of BSA-RPMI1640 containing a diluted test substance (4-(3-Chloro-4-(cyclopropylaminocarbonyl)aminophenoxy)-7-methoxy-6-quinolinecarboxamide) was added to each well and culturing was carried out in a 5% CO2 incubator (37° c.) for 1 hour. Additional culturing was then carried out in a 5% CO2 incubator (37° c.) for 5 minutes after the addition of 10 μl of SCF (10 μg/ml, R&D Corporation). After 5-minutes culturing, the cells were washed with PBS and 100 μl of SDS sample loading buffer was added to the cells to prepare a cell lysate sample. After the sample was heat-treated at 94° c. for 10 minutes, it was cryopreserved at −20° c. […]

[3] = tested on: small cell lung cancer cell line H-526 expressing c-Kit kinase; assay: Effect on cell proliferation stimulated by SCF; assay type: cell-based; settings: Homo sapiens, NCI-H526; H-526 cells, SCF stimulation, 7th day, Cell Counting Kit-8; read-out: IC50 (concentration required for 50% inhibition of the cell proliferation)
Protocol: After culturing, H-526 cells were washed with PBS three times and were suspended in an RPMI1640 medium containing 0.1% BSA (Sigma Corporation) (hereinafter abbreviated as “BSA-RPMI1640”) at 1.0×10^5 cells/ml. […] After color development, the absorbance of each well was determined using a MTP-32 plate reader (Colona Electric Co., Ltd.) at a measuring wavelength of 450 nm and at a reference wavelength of 660 nm. The absorbance of each well was subtracted by the absorbance of the well without addition of SCF, and then the ratio of the absorbance of the well with addition of the test substance to the ratio of the absorbance of the well without addition of the test substance was determined. This ratio was used to calculate the concentration of the test substance required for 50% inhibition of the cell proliferation (IC50).

[4] = tested on: H-526 tumor; assay: Effect on growth of H-526 tumor transplanted to nude mice; assay type: in vivo, Balb/c nu/nu mice
Protocol: H-526 cells were cultured in a 5% CO2 incubator (37° c.) using an RPMI1640 medium containing 10% FCS. After the culture medium was collected, H-526 cells were washed with PBS twice and were suspended in PBS at 5.0×10^7 cells/ml. This cell suspension (0.1 ml) was transplanted to the subcutaneous parts of the right flank of 6-week female Balb/c nu/nu mice (purchased from Charles River Laboratories, Inc.). After transplantation, administration of a test substance (4-(3-chloro-4-(cyclopropylaminocarbonyl)aminophenoxy)-7-methoxy-6-quinolinecarboxamide) was started at the point the tumor volume reached approximately 150 mm^3, and thus, oral administration was conducted twice daily for a period of 14 days. The test substance was suspended in a 0.5% methylcellulose solution (Wako Pure Chemical Industries Co., Ltd.) so as to give a dose of 0.1 ml/10 g body weight.
The tumor volume was measured with a caliper twice weekly during the administration period. The long and short diameters of the tumor were measured with a caliper and the tumor volume was calculated according to the equation: ½×long diameter×short diameter×short diameter. Here, the experiment was conducted in a vehicle control group of 10 animals (solvent-administered group) as well as in a test substance administered group of 5 animals.

c-Kit and β-actin in tumor tissue ([1]; 30 or 100 mg/kg) | phosphorylated c-Kit in tumor tissue ([1]; 30 or 100 mg/kg) | IC50 [3] [nM] | phosphorylated c-Kit in tumor tissue ([1]; 160 mg/kg) | Structure (SMILES) | c-Kit kinase phosphorylation in the presence of SCF [2] | growth of the nude mouse transplanted H-526 tumor (tumor volume) ([4]; oral, twice daily for 14 days) | anti-tumor effect ([4]; H-526 tumor in nude mice, 160 mg/kg)
remained unchanged | completely inhibited phosphorylation | 9.46 |  | COc1cc2nccc(Oc3ccc(NC(=O)NC4CC4)c(Cl)c3)c2cc1C(N)=O [4-(3-chloro-4-(cyclopropylaminocarbonyl)aminophenoxy)-7-methoxy-6-quinolinecarboxamide] | suppressed the c-Kit kinase phosphorylation that would take place in the presence of SCF in a concentration-dependent manner | suppressed the growth of the nude mouse transplanted H-526 tumor in a dose-dependent manner | 
 |  |  | partially inhibited phosphorylation | Cc1ccc(NC(=O)c2ccc(CN3CCN(C)CC3)cc2)cc1Nc1nccc(-c2cccnc2)n1 [STI571, reference compound] |  |  | showed little anti-tumor effect
